Results as given in patent US4162307A, “Method for anaesthesia by use of a pentapeptide” (priority 1977, dated 1979).
Where a name gives a salt, the structure may show the parent alone.

Legend:
[1] = test system: righting, pinnal and corneal reflexes; assay: Anaesthesia in laboratory animals (abolition of reflexes), standard pharmacological procedures; format: in vivo, rats and mice
[2] = test system: righting, pinnal and corneal reflexes; assay: Anaesthetic effects following intracerebroventricular injection in mice (loss of righting, pinnal and corneal reflexes); format: in vivo; conditions: mouse, loss of all three reflexes
[3] = test system: citric acid aerosol-induced coughs; assay: Antitussive testing, citric acid aerosol; format: in vivo, guinea-pigs
Experimental: J. Pharmacol, 39, (1970) 225.
(C) For antitussive testing, guinea-pigs are subjected to an aerosol containing 20% citric acid, 30 minutes after administration of compound (orally or subcutaneously). The number of coughs during a five minute exposure are counted and meaned for six animals per treatment. The method is that described by Boura, A. L. A., Green, A. F. and Saunders, I. A. Br. J. Pharmac., May 1970, Vol. 39, No. 1, page 225.
(§1) From the data obtained the respective ED50 figures were calculated (i.e. the dose required to elicit the appropriate effect in 50% of the animals). N.T.: not tested.

[4] = test system: righting, pinnal and corneal reflexes; assay: Anaesthetic effects tested intravenously; format: in vivo, mice; conditions: loss of all three reflexes
Experimental: (D) Compounds are tested for anaesthetic effects following intracerebroventricular injection in mice. The animals are observed for loss of righting reflex (failure to roll over within 10 seconds of being turned on their backs), loss of pinnal reflex (failure to flick the ear in response to a light touch at the base of the pinna) and loss of corneal reflex (failure to blink when the cornea is touched lightly). Loss of all three reflexes constitutes anaesthesia. In addition, any other effects are noted. […] Interesting compounds are then tested intravenously in the same manner.
as §1

[5] = test system: castor oil-induced diarrhoea; assay: Antidiarrhoeal activity in the rat (castor oil); format: in vivo
Experimental: (B) Antidiarrhoeal activity in the rat. In this procedure rats were straved for 24 hours, the peptide then administered either subcutaneously or orally followed after 15 minutes by 1 ml castor oil per rat given orally.
as §1

mouse hot plate = assay: Analgesia in mice in the hot plate test; format: in vivo
Experimental: (A) Analgesia in mice in the hot plate test (modification of the method of Eddy, N. B. et al., J. Pharm. Exp. Therap. (1953) 107, 385, the peptide being administered by intracerebroventricular injection).
as §1

[6] = test system: isolated mouse vas deferens; assay: Neurally evoked contractions of the isolated mouse vas deferens
[7] = test system: isolated guinea-pig ileum; assay: Electrically-induced contractions of the isolated guinea-pig ileum; conditions: 0.1 Hz; 0.4 ms; 30-40 V
Source text: (Each intestinal segment was impaled by the anode and suspended with a 2-3 g load. Stimulus parameters: frequency: 0.1 Hz; duration: 0.4 ms; voltage (supramaximal) 30-40 V; the contractions were transduced isotonically).

## CN1CC[C@]23c4c5ccc(O)c4O[C@H]2[C@@H](O)C=C[C@H]3[C@H]1C5 [morphine, reference compound]
[1]; mice, acute bolus injection in up to lethal doses
  Effect on the righting reflex, morphine by acute bolus injection: does not abolish the righting reflex

## CCNC(=O)[C@@H](CC(C)C)NC(=O)[C@H](Cc1ccccc1)NC(=O)CNC(=O)[C@@H](C)NC(=O)[C@@H](N)Cc1ccc(O)cc1 [H.Tyr.D-Ala.Gly.Phe.D-Leu.NHEt hydrochloride]
[2]
  ED50 anaesthesia i.c.v.: 2.8 μg/mouse
[3]; guinea-pig, 20% citric acid aerosol 30 minutes after administration, route not printed in table (orally or subcutaneously)
  ED50 antitussive: 2.0 mg/kg
[4]
  ED50 anaesthesia i.v.: 20 mg/kg
[5]; rat, s.c., castor oil 1 ml orally 15 minutes after peptide
  ED50 anti-diarrhoea: 10 mg/kg
Mouse hot plate; i.c.v., dose eliciting the effect in 50% of the animals
  ED50 mouse hot plate, analgesia: 0.03 μg/mouse

## CCNC(=O)[C@@H](CC(C)C)NC(=O)[C@H](Cc1ccccc1)NC(=O)CNC(=O)[C@@H](C)NC(=O)[C@@H](N)Cc1ccc(O)cc1 [peptide of formula (I), h.tyr.D-Ala.Gly.Phe.D-Leu.NHEt]
[3]; guinea-pigs
  Antitussive activity: exhibits antitussive activity
[6]; naloxone
  Naloxone sensitivity of vas deferens inhibition: abolished by the known narcotic antagonist naloxone
[6]; pulses at 0.1 Hz
  Effect on neurally evoked contractions of isolated mouse vas deferens: Inhibition of neurally evoked contractions
[5]; rats, castor oil-induced diarrhoea
  Antidiarrhoeal activity: effective in reducing castor oil-induced diarrhoea
[1]; effects (i), (ii) and (iii), naloxone administered
  Reversal of reflex-abolishing effects by naloxone: may be reversed by administration of the known narcotic antagonist naloxone
[1]; laboratory animals
  Effect on the corneal reflex: Abolition of the corneal reflex
  Effect on the pinnal reflex: Abolition of the pinnal reflex
  Effect on the righting reflex: Abolition of the righting reflex
[1]; rats and mice, parenteral, e.g. intravenous or intracerebroventricular injection
  Induction and maintenance of anaesthesia: both to induce and to maintain anaesthesia
Mouse hot plate; mice, hot plate, naloxone
  Naloxone sensitivity of analgesic activity: abolished by naloxone
Mouse hot plate; mice, intracerebroventricular injection
  Analgesic activity, hot plate: exhibits analgesic activity
[7]
  Effect on electrically-induced contractions of isolated guinea-pig ileum: Reduction of electrically-induced contractions
